Data as given in patent US9439876B2, “Method of treating microbial infections” (priority 2014, dated 2016).
“Also recorded” adds a separate entry of the source.

How the values were obtained:
Assay type in all cases: cell-based
[1] = test system: Candida albicans wild type strain SN250; assay: Screen for inhibition of Candida albicans lawn formation (halo) on solid YPD plates; conditions: for inhibition of C. albicans growth (halo formation) on YPD plates: 5 μl of 10 mM drug on fungal lawn, 25° C. and 37° C.
Protocol: (§1) C. albicans was plated on solid YPD and serum plates, and 5 μl of each 10 mM drug was placed on top of the fungal lawn. The effect of exposure to each of the compounds from the library was assayed for its ability to inhibit C. albicans growth, as well as ability to form a halo within the fungal lawn. […] (FIG. 1A).
(§2) High-throughput Screening Assay: The sensitivity of C. albicans against compounds was assessed by a high-throughput chemical screen. 200 μl of C. albicans overnight culture were spread onto petri dishes containing either YPD or fetal bovine serum. 5 μl of each drug was placed directly on the agar surface using a multichannel pipette and slight contact of the tip to the agar made to leave an impression to facilitate later analysis. Compounds that were replicated were done on petri dishes, following the same protocol in at least five independent experiments. For the replication studies, only a single drug was placed per plate. The plates were incubated at either 25° C. or 37° C.

[2] = test system: Candida albicans wild type strain SN250; assay: Screen for inhibition of Candida albicans lawn formation (halo) on solid serum (FBS agar) plates; conditions: 5 μl of 10 mM drug on fungal lawn, 25° C. and 37° C.
Protocol: as §1
Media and Growth Conditions: C. albicans strains were cultured with 5 ml of YPD (1% yeast extract, 2% peptone, 2% dextrose, pH 6) medium at 30° C. overnight. Bacterial cells were cultured in LB (Luria-Bertani) medium consisting of 5 g Bacto-Tryptone, 2.5 g Bacto-Yeast Extract, 5 g NaCl and 7.5 g of 2% agar if preparing solid plates. The centrifuge tubes were incubated at 37° C. and left shaking overnight at 150 rpm. Fetal bovine serum was incorporated into agar. Fetal bovine serum was preheated in a water bath set at 65° C. […] The agar solution for the serum mixture consisted of 16 g agar, which was then brought up to 300 ml with nanopure water. The agar solution was then autoclaved at 120° C. for 45 minutes. The agar and serum mixtures were then amalgamated while in their isothermal states.
as §2

[3] = test system: Candida albicans wild type strain SN250; assay: as above; conditions: 5 μl of undiluted (neat) drug, approximately 3 mg, middle of serum-grown lawn
[4] = test system: Candida albicans knock-out mutants; assay: Genotypic mutant screening against Octodrine (three knockout libraries, 908 mutant strains); conditions: 5 μl of 10 mM drug on YPD plates, 30° C. overnight
Protocol: In order to identify C. albicans proteins and signaling pathways that mediate the lethality of Octodrine, three C. albicans knockout libraries were screened for any alterations in sensitivity to 10 mM Octodrine—collectively consisting of 908 mutant strains each strain lacking one of the virulence genes. These libraries consisted of 647 mutant strains lacking one of the essential virulence genes (Noble, S M et al., 2010, Nat Genet 42:590-598, the entire content of which is herein incorporated by reference); 96 cell wall protein mutants (Norice, C T et al., 2007, Eukaryot Cell 6:2046-2055, the entire content of which is herein incorporated by reference); and 165 transcription factors mutants (Nobile, C J et al., 2005, Curr Biol 15:1150-1155, the entire content of which is herein incorporated by reference).
Genotypic Mutant Screening Against Octodrine: Each C. albicans knockout strain was cultured in individual wells of a 96 well plate in 100 μl of YPD media overnight at 30° C. 5 μl of each Candida knock-out overnight culture was spotted onto a YPD solid plate using a multichannel pipette. The cells were then left to absorb into the YPD plates for 1 hour at 25° C. Using a multichannel pipette, 5 μl of Octodrine 10 mM was spotted directly on top of the C. albicans cells. The plates were then placed in an incubator set at 30° C. and left overnight. […]

[5] = test system: Escherichia coli strain C600; assay: Halo formation in bacterial lawn, gram-negative bacteria; conditions: 5 μl of neat form (3 mg of undiluted)
Source text: (§3) In order to test if Octodrine kills microorganisms by targeting their non-protein cellular components, Escherichia coli and Bacillus cereus, gram-negative and gram-positive bacteria respectively, were exposed to Octodrine.
(§4) Candida albicans and Bacterial Strains: The Candida albicans wild type strain SN250 was used for the high-throughput screening experiments. The bacterial strain consisted of Bacillus cereus strain 10987 and Escherichia coli strain C600. The genotypic screen for mutant sensitivity to Octodrine was tested with three C. albicans libraries that were previously created as disclosed in Noble, 2010, supra; Rauceo, J M et al., 2008, Mol Biol Cell 19:2741-2751; and Homann, O R et al., 2009, PLoS Genet 5:e1000783, the entire contents of all of which are herein incorporated by reference.
(§5) Media and Growth Conditions: C. albicans strains were cultured with 5 ml of YPD (1% yeast extract, 2% peptone, 2% dextrose, pH 6) medium at 30° C. overnight. Bacterial cells were cultured in LB (Luria-Bertani) medium consisting of 5 g Bacto-Tryptone, 2.5 g Bacto-Yeast Extract, 5 g NaCl and 7.5 g of 2% agar if preparing solid plates. The centrifuge tubes were incubated at 37° C. and left shaking overnight at 150 rpm. Fetal bovine serum was incorporated into agar. Fetal bovine serum was preheated in a water bath set at 65° C. […]

[6] = test system: RAW264.7 mouse macrophage cells; assay: Mammalian cell survival assay (MTT); conditions: RAW264.7, 1 μl of 10 mM drug in 100 μl media with two-fold dilutions, 24 hours
Protocol: Mammalian cell culture, drug treatment, and survival assay: RAW264.7 mouse macrophage cells were maintained in DMEM (Dulbecco's Modified Eagle Medium, Sigma-Aldrich) supplemented with 10% FBS (fetal bovine serum, Bioexpress) and 100 μg/mL penicillin and 100 μg/mL streptomycin. RAW264.7 cells (10,000 per well) were seeded in 96-well plates (100 μL/well) 24 hours before the assay. During the assay, 1 μl of 10 mM drug was added to 100 μl of cell-containing media. Two-fold serial dilutions of the media were performed. Cells were treated with drugs for 24 hours, and determination of cell viability by 3-(4,5-dimethylthiazol-2-yl)-2,5-diphenyltetrazolium bromide (MTT) assay was performed as described in Lu et al., 2004, Proc Natl Acad Sci USA 101:17246-17251, the entire content of which is herein incorporated by reference.
Each data point shown in the figure for MTT assays represents the average of results from at least two wells in each of at least two separate experiments. Cell viability is shown as the percentage of survivors obtained relative to untreated cells (100%).

[7] = test system: Bacillus cereus strain 10987; assay: Halo formation in bacterial lawn, gram-positive bacteria; conditions: 5 μl of neat form (3 mg of undiluted)
Source text: as §3, §4, §5

| Compound | inhibition of C. albicans growth (halo formation) on YPD plates [1] | inhibition of C. albicans growth (halo formation) on serum plates [2] | further results |
| --- | --- | --- | --- |
| O=C1C2CC=CCC2C(=O)N1SC(Cl)(Cl)Cl (stereo not drawn) [Captan] | strong inhibition | – | – |
| Cc1ccc2c(Cl)cc(Cl)c(O)c2n1 [Chlorquinaldol] | – | strongest inhibition | – |
| Clc1ccccc1C(c1ccccc1)(c1ccccc1)n1ccnc1 [Clotrimazole] | strong inhibition | weak inhibition | – |
| OC(Cn1cncn1)(Cn1cncn1)c1ccc(F)cc1F [Fluconazole] | strong inhibition | weak inhibition | inhibition of C. albicans growth (halo formation) on YPD plates ([1]; listed as fluconazole): effective inhibitor; also recorded: prominent halos; effectiveness at forming halos at 37° C. compared to 25° C. ([1]; 5 μl of 10 mM drug, 37° C. versus 25° C.): diminished effectiveness |
| CC(C)n1c(/C=C/C(O)CC(O)CC(=O)O)c(-c2ccc(F)cc2)c2ccccc21 (stereo not drawn) [Fluvastatin] | – | failed to inhibit | – |
| Clc1ccc(COC(Cn2ccnc2)c2ccc(Cl)cc2Cl)c(Cl)c1 (stereo not drawn) [Miconazole] | strong inhibition | weak inhibition | – |
| COc1c(C)c2c(c(O)c1C/C=C(\C)CCC(=O)O)C(=O)OC2 [Mycophenolic acid] | very strong inhibition | failed to inhibit | – |
| O=[N+]([O-])c1ccc(/C=N/O)o1 [Nifuroxime] | – | weaker inhibition | – |
| O=[N+]([O-])c1ccc(O)c2ncccc12 [Nitroxoline] | – | weaker inhibition | – |
| CCCCCCCC(=O)O [Octanoic acid] | – | weaker inhibition | – |
| CC(C)CCCC(C)N (stereo not drawn) [Octodrine, 6-methylheptan-2-amine] | moderate-to-weak anti-Candida activity and mild | strong fungal growth inhibition; also recorded: prominent ability to kill; also recorded: most prominent drug that killed C. albicans in serum; also recorded: best Candida growth inhibition | elimination of serum-grown Candida lawn by undiluted drug [3]: sufficient to eliminate most of the whole fungal lawn; sensitivity of C. albicans knockout mutants relative to wild type [4]: as sensitive as their wild type strains; also recorded: no C. albicans mutants (FIG. 3) showed a decrease in sensitivity; halo formation in E. coli lawn [5]: formed prominent halos; also recorded: capable of killing; survival of mouse macrophages (cell viability relative to untreated cells) [6]: the same as to the DMSO alone; also recorded: did not affect the sensitivity; halo formation in B. cereus lawn [7]: formed prominent halos; also recorded: capable of killing |
| [O-][n+]1ccccc1[S-].[O-][n+]1ccccc1[S-].[Zn+2] [Pyrithione Zinc] | strong inhibition | weak inhibition | – |
| Antimycin A | strong inhibition | weak inhibition | – |
